Measurements from patent US20140135357A1, “DOSE REGIME FOR CAMPTOTHECIN DERIVATIVES” (Taiwan Liposome Company, Ltd., priority 2012, published 2014).
Entries after “also recorded” stand apart in the source; their conditions may differ. Where two headings read alike, the source gives them in different places.

Columns and labels:
topoisomerase I = molecular target: T1, topoisomerase I (Homo sapiens, UniProt P11387); test: Topoisomerase I inhibition; format: biochemical
T1 sequence (P11387 1-765): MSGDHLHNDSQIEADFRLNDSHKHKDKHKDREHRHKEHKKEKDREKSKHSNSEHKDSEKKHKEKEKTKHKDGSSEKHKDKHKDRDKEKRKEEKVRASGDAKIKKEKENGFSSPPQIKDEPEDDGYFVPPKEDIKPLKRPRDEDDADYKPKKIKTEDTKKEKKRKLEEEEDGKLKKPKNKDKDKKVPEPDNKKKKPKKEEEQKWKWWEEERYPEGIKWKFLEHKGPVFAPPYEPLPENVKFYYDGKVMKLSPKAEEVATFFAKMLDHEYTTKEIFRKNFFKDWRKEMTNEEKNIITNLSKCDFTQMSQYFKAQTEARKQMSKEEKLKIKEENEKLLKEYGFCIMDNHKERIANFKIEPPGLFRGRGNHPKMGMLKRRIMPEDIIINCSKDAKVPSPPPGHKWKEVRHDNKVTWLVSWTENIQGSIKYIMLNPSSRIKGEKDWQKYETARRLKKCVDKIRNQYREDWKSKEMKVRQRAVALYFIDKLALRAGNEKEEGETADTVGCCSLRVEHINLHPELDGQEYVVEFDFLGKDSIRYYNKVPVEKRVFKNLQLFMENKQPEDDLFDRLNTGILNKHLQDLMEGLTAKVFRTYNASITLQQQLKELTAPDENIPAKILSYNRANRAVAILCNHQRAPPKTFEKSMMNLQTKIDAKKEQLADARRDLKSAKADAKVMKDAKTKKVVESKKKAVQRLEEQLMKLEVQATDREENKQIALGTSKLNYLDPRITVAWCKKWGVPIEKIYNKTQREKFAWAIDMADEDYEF

[1] = human, in vivo
Description: (§1) A non-randomized phase I clinical trial was conducted at 4 institutions in the US and Taiwan.
(§2) Patients were included in this trial if they are over the age of 18, with advanced cancer and the ECOG performance status is 0 or 1. […] Patients were excluded from the study if they have previously received more than 3 regimens of chemotherapy, or if they have received chemotherapy or radiotherapy within 4 weeks of the trial recruitment.
(§3) Eligible patients were given the pharmaceutical composition of the present invention, comprising a mixture of TLC388HCl and mPEG2000-DSPE in a molar ratio of 1:0.7 to 1:0.9 (known as Lipotecan®). […] The pharmaceutical composition was administered as a 30-min IV infusion, on days 1, 8, and 15 of a 28-day cycle (i.e. 3 IV infusions per 28-day cycle).
(§4) Serum samples were collected from the patients for pharmacokinetic analysis on day 1, day 8 and day 15 of Cycles 1 and 2, at the following times:
(§5) Post IV infusion: (Day 1 and 8 of Cycle 1): 33 min; 40 min; 50 min; 1 h; 1 h 30 min; 2 h; 4 h and 8 h. Post IV infusion (Day 15 of Cycle 1 and Day 1, 8, and 15 of Cycle 2): 4 h. Patients were assessed every 8 weeks, after 2 cycles of treatments.
(§6) During the 2-cycle study period, the patients were examined regularly for the following outcomes: • Side effect/DLT; • The pK profiles of the (S,S) and (S,R) diastereomers of TLC388HCl, its 3 metabolites (TLC-U1, TLC-U2 and Topotecan) on day 1 and day 8 of the treatment cycle; and • Anti-cancer efficacy.

[2] = in-vitro study of anti-proliferative activity; format: cell-based
clinical = conditions: human, in vivo
Description: as §1, §2, §3, §4, §5, §6

**Q.** For `CC[C@@]1(OC(=O)[C@H](C)O)C(=O)OCc2c1cc1n(c2=O)Cc2cc3c(CN(C)C)c(O)ccc3nc2-1` [TLC-U2, S,S-topotecan lactate], which “topoisomerase I inhibition” value (topoisomerase I) is on record?
**A.** weak topoisomerase I Inhibitors

**Q.** What about the “Dose-normalized AUClast” value [1] of the same molecule?
**A.** 4.05 ± 1.34 nM*h/(mg/m^2)

**Q.** And the “Dose-normalized Cmax” value [1]?
**A.** 2.84 ± 0.97 nM/(mg/m^2)

**Q.** What about the “difference between PK profiles on Day 1 and Day 8” value [1] of the same molecule?
**A.** no significant difference

**Q.** And the “dose proportionality of exposure” value [1]?
**A.** roughly dose proportional

**Q.** What about the AUC0-t ([1]; 1.5 mg/m2) of the same molecule?
**A.** 2.872 (0.882) hr · ng/mL

**Q.** What about the Cmax ([1]; 1.5 mg/m2) of the same molecule?
**A.** 2.117 (0.468) ng/mL

**Q.** What about the Tmax ([1]; 1.5 mg/m2) of the same molecule?
**A.** 0.505 (0.039) hr

**Q.** And the t1/2 ([1]; 1.5 mg/m2)?
**A.** 1.953 (0.698) hr

**Q.** What about the AUC0-t ([1]; 3 mg/m2) of the same molecule?
**A.** 5.625 (1.972) hr · ng/mL

**Q.** And the AUC0-t ([1]; 6 mg/m2)?
**A.** 11.599 (1.437) hr · ng/mL

**Q.** And the AUC0-t ([1]; 9 mg/m2)?
**A.** 16.581 (3.976) hr · ng/mL

**Q.** What about the AUC0-t ([1]; 20 mg/m2) of the same molecule?
**A.** 29.023 (7.443) hr · ng/mL

**Q.** And the AUC0-t ([1]; 30 mg/m2)?
**A.** 78.761 (50.88) hr · ng/mL

**Q.** And the AUC0-t ([1]; 35 mg/m2)?
**A.** 102.97 (20.18) hr · ng/mL

**Q.** And the Cmax ([1]; 35 mg/m2)?
**A.** 74.800 (42.82) ng/mL

**Q.** And the Tmax ([1]; 35 mg/m2)?
**A.** 0.592 (0.091) hr

**Q.** And the t1/2 ([1]; 35 mg/m2)?
**A.** 3.347 (1.219) hr

**Q.** And the AUC0-t ([1]; 40 mg/m2)?
**A.** 72.758 (49.22) hr · ng/mL

**Q.** What about the AUC0-t ([1]; 50 mg/m2) of the same molecule?
**A.** 97.314 (38.34) hr · ng/mL

**Q.** And the AUC0-t ([1]; 60 mg/m2)?
**A.** 109.80 (25.72) hr · ng/mL

**Q.** And the “time at which peak plasma concentrations (Cmax) were achieved” value ([1]; iv)?
**A.** within one hour

**Q.** And the “time of rapid rise of the metabolites in the serum after starting the infusion” value ([1]; iv)?
**A.** ≤ 15 min

**Q.** What about the anti-proliferative activity [2] of the same molecule?
**A.** comparable to that of TLC 388HCl; also recorded: more potent than that of TLC-U1

**Q.** And the AUC0-t (clinical; 1.5 mg/m2, AUC0-t)?
**A.** 3.74 ng·h/mL

**Q.** And the Cmax (clinical; 1.5 mg/m2, Cmax)?
**A.** 3.34 ng/mL

**Q.** And the Tmax (clinical; 1.5 mg/m2, Tmax)?
**A.** 37.7 min

**Q.** What about the half-life (clinical; 1.5 mg/m2, t1/2) of the same molecule?
**A.** 138 min

**Q.** And the AUC0-t (clinical; 3 mg/m2, AUC0-t)?
**A.** 7.91 ng·h/mL

**Q.** What about the Cmax (clinical; 3 mg/m2, Cmax) of the same molecule?
**A.** 5.14 ng/mL

**Q.** And the Tmax (clinical; 3 mg/m2, Tmax)?
**A.** 28 min

**Q.** And the half-life (clinical; 3 mg/m2, t1/2)?
**A.** 140 min

**Q.** And the AUC0-t (clinical; 6 mg/m2, AUC0-t)?
**A.** 11.6 ng·h/mL

**Q.** What about the Cmax (clinical; 6 mg/m2, Cmax) of the same molecule?
**A.** 7.52 ng/mL

**Q.** What about the Tmax (clinical; 6 mg/m2, Tmax) of the same molecule?
**A.** 28 min

**Q.** And the half-life (clinical; 6 mg/m2, t1/2)?
**A.** 148 min

**Q.** And the AUC0-t (clinical; 9 mg/m2, AUC0-t)?
**A.** 15.5 ng·h/mL

**Q.** What about the Cmax (clinical; 9 mg/m2, Cmax) of the same molecule?
**A.** 11.5 ng/mL

**Q.** And the Tmax (clinical; 9 mg/m2, Tmax)?
**A.** 30.2 min

**Q.** What about the half-life (clinical; 9 mg/m2, t1/2) of the same molecule?
**A.** 195 min

**Q.** And the AUC0-t (clinical; 13.5 mg/m2)?
**A.** 29.1 ng·h/mL

**Q.** What about the Cmax (clinical; 13.5 mg/m2) of the same molecule?
**A.** 18.1 ng/mL

**Q.** What about the Tmax (clinical; 13.5 mg/m2) of the same molecule?
**A.** 22 min

**Q.** What about the half-life (clinical; 13.5 mg/m2) of the same molecule?
**A.** 147 min

**Q.** And the AUC0-t (clinical; 20 mg/m2, AUC0-t)?
**A.** 33.6 ng·h/mL

**Q.** And the Cmax (clinical; 20 mg/m2, Cmax)?
**A.** 28.6 ng/mL

**Q.** What about the Tmax (clinical; 20 mg/m2, Tmax) of the same molecule?
**A.** 29 min

**Q.** And the half-life (clinical; 20 mg/m2, t1/2)?
**A.** 149 min

**Q.** And the AUC0-t (clinical; 30 mg/m2, AUC0-t)?
**A.** 49.5 ng·h/mL

**Q.** And the Tmax (clinical; 30 mg/m2, Tmax)?
**A.** 25.5 min

**Q.** What about the half-life (clinical; 30 mg/m2, t1/2) of the same molecule?
**A.** 139 min

**Q.** What about the AUC0-t (clinical; 35 mg/m2, AUC0-t) of the same molecule?
**A.** 88.2 ng·h/mL

**Q.** What about the Cmax (clinical; 35 mg/m2, Cmax) of the same molecule?
**A.** 48.5 ng/mL

**Q.** And the Tmax (clinical; 35 mg/m2, Tmax)?
**A.** 36.5 min

**Q.** What about the half-life (clinical; 35 mg/m2, t1/2) of the same molecule?
**A.** 188 min

**Q.** What about the AUC0-t (clinical; 40 mg/m2, AUC0-t) of the same molecule?
**A.** 74.1 ng·h/mL

**Q.** What about the Cmax (clinical; 40 mg/m2, Cmax) of the same molecule?
**A.** 52.5 ng/mL

**Q.** What about the Tmax (clinical; 40 mg/m2, Tmax) of the same molecule?
**A.** 26.7 min

**Q.** And the half-life (clinical; 40 mg/m2, t1/2)?
**A.** 157 min

**Q.** And the AUC0-t (clinical; 50 mg/m2, AUC0-t)?
**A.** 101 ng·h/mL

**Q.** And the Cmax (clinical; 50 mg/m2, Cmax)?
**A.** 65.7 ng/mL

**Q.** What about the Tmax (clinical; 50 mg/m2, Tmax) of the same molecule?
**A.** 23.4 min

**Q.** And the half-life (clinical; 50 mg/m2, t1/2)?
**A.** 153 min

**Q.** What about the AUC0-t (clinical; 60 mg/m2, AUC0-t) of the same molecule?
**A.** 107 ng·h/mL

**Q.** What about the Cmax (clinical; 60 mg/m2, Cmax) of the same molecule?
**A.** 87.4 ng/mL

**Q.** And the Tmax (clinical; 60 mg/m2, Tmax)?
**A.** 27 min

**Q.** What about the half-life (clinical; 60 mg/m2, t1/2) of the same molecule?
**A.** 153 min

**Q.** And the Tmax (clinical; 60 mg/m2, tmax)?
**A.** 28.2 ± 8.4 min

**Q.** And the half-life (clinical; T1/2)?
**A.** > 150 min

**Q.** And the Tmax (clinical; Tmax)?
**A.** < 60 min
